Measurements taken from patent publication US4029671A, “3-[(5-nitro-2-imidazolyl)pyrazol-5-yl]oxamic acid derivatives” (priority 1976, dated 1977).
≈ marks a conversion by molar mass, not a printed value. Structures can show the parent of a compound that is named as a salt.

Columns and labels:
[1] = system: Peptococcus asaccharolyticus 1302; assay: Agar dilution susceptibility of anaerobic bacteria (Chart 1); assay type: cell-based; conditions: agar dilution, 37° C., Peptococcus asaccharolyticus 1302; for MIC: Peptoniphilus asaccharolyticus, 1302, 24 h, read-out: 24 Hr. MIC
[2] = system: Fusobacterium symbiosum 1470; assay: as above; assay type: cell-based; conditions: agar dilution, 37° C., Fusobacterium symbiosum 1470; for MIC: Fusobacterium, 1470, 24 h, read-out: 24 Hr. MIC
[3] = system: Bacteroides vulgatis 1211; assay: as above; assay type: cell-based; conditions: agar dilution, 37° C., Bacteroides vulgatis 1211
[4] = system: Peptostreptococcus anaerobius 1428; assay: as above; assay type: cell-based; conditions: agar dilution, 37° C., Peptostreptococcus anaerobius 1428
[5] = system: Bacteroides melaninogenicus 1856/28; assay: as above; assay type: cell-based; conditions: agar dilution, 37° C., Bacteroides melaninogenicus 1856/28; for MIC: Prevotella intermedia, 1856/28, 24 h, read-out: 24 Hr. MIC
[6] = system: Eubacterium aerofaciens 1235; assay: as above; assay type: cell-based; conditions: agar dilution, 37° C., Eubacterium aerofaciens 1235
[7] = system: Fusobacterium necrophorum 6054A; assay: as above; assay type: cell-based; conditions: agar dilution, 37° C., Fusobacterium necrophorum 6054A; for MIC: Fusobacterium necrophorum, 6054A, 24 h, read-out: 24 Hr. MIC
[8] = system: Bacteroides fragilis sp. fragilis 103; assay: as above; assay type: cell-based; conditions: agar dilution, 37° C., Bacteroides fragilis sp. fragilis 103; for MIC: Bacteroides fragilis, 24 h, read-out: 24 Hr. MIC
[9] = system: Bacteroides fragilis sp. fragilis 110; assay: as above; assay type: cell-based; conditions: agar dilution, 37° C., Bacteroides fragilis sp. fragilis 110; for MIC: Bacteroides fragilis, 24 h, read-out: 24 Hr. MIC
[10] = system: Bacteroides fragilis sp. fragilis 1936B; assay: as above; assay type: cell-based; conditions: agar dilution, 37° C., Bacteroides fragilis sp. fragilis 1936B
[11] = system: Bacteroides fragilis sp. fragilis 1874; assay: as above; assay type: cell-based; conditions: agar dilution, 37° C., Bacteroides fragilis sp. fragilis 1874; for MIC: Bacteroides fragilis, 24 h, read-out: 24 Hr. MIC
[12] = system: Bacteroides fragilis sp. vulgatis 1563; assay: as above; assay type: cell-based; conditions: agar dilution, 37° C., Bacteroides fragilis sp. vulgatis 1563
[13] = system: Bacteroides fragilis sp. fragilis 112; assay: as above; assay type: cell-based; conditions: agar dilution, 37° C., Bacteroides fragilis sp. fragilis 112; for MIC: Bacteroides fragilis, 24 h, read-out: 24 Hr. MIC
[14] = system: Bacteroides melaninogenicus 2736; assay: as above; assay type: cell-based; conditions: agar dilution, 37° C., Bacteroides melaninogenicus 2736
[15] = system: Clostridium perfringens 81; assay: microbe, parasite or virus in culture; assay type: cell-based; conditions: for MIC: Clostridium perfringens, 81, 24 h, read-out: 24 Hr. MIC, agar dilution, 37° C.
[16] = system: Actinomyces israelii W855; assay: Agar dilution susceptibility of anaerobic bacteria (Chart 1); assay type: cell-based; conditions: 24 h, agar dilution, 37° C., read-out: 24 Hr. MIC
[17] = system: Bacteroides fragilis sp. thetaiotaomicron 1438; assay: as above; assay type: cell-based; conditions: agar dilution, 37° C., Bacteroides fragilis sp. thetaiotaomicron 1438
[18] = system: Bacteroides fragilis sp. fragilis 9; assay: as above; assay type: cell-based; conditions: agar dilution, 37° C., Bacteroides fragilis sp. fragilis 9; for MIC: Bacteroides fragilis, 24 h, read-out: 24 Hr. MIC
[19] = system: Bacteroides fragilis sp. fragilis 1451; assay: as above; assay type: cell-based; conditions: agar dilution, 37° C., Bacteroides fragilis sp. fragilis 1451
[20] = system: Bacteroides fragilis sp. fragilis 2; assay: as above; assay type: cell-based; conditions: Bacteroides fragilis, 24 h, agar dilution, 37° C.; Bacteroides fragilis sp. fragilis 2; read-out: 24 Hr. MIC
[21] = system: Propionibacterium acnes 79; assay: as above; assay type: cell-based; conditions: agar dilution, 37° C., Propionibacterium acnes 79; for MIC: Cutibacterium acnes, 79, 24 h, read-out: 24 Hr. MIC
[22] = system: Bacteroides corrodens 1874; assay: as above; assay type: cell-based; conditions: agar dilution, 37° C., Bacteroides corrodens 1874
[23] = system: Bacteroides fragilis sp. fragilis 106; assay: as above; assay type: cell-based; conditions: agar dilution, 37° C., Bacteroides fragilis sp. fragilis 106; for MIC: Bacteroides fragilis, 24 h, read-out: 24 Hr. MIC
[24] = system: Bacteroides fragilis sp. fragilis 113; assay: as above; assay type: cell-based; conditions: agar dilution, 37° C., Bacteroides fragilis sp. fragilis 113
[25] = system: Bacteroides fragilis sp. fragilis 62; assay: as above; assay type: cell-based; conditions: agar dilution, 37° C., Bacteroides fragilis sp. fragilis 62; for MIC: Bacteroides fragilis, 24 h, read-out: 24 Hr. MIC
[26] = system: Salmonella typhimurium; assay: Control of infections caused by Salmonella typhimurium in chickens (Chart 2); assay type: in vivo; conditions: 60 mg./kg. subcutaneous, day-old chicks, 5 per group, 6 days observation; sodium salt
Experimental: The efficacy of the novel compounds in the control of infections caused by Salmonella typhimurium in chickens was evaluated in the following manner. The test was carried out using day-old chicks weighing approximately 35 g. each. The chicks were divided into groups of 5 chicks per each dosage level. A portion of the chicks received the test compound which was suspended in 0.2 ml. of polyethylene glycol 200 and administered subcutaneously in the neck. […] All the chicks were challenged with a 1:200 dilution of a culture of the organism, 0.1 ml. of the dilution being injected into each chick in the leg intramuscularly. […] The test compounds are identified in the same manner as set forth in experiment 1. In the chart, column 1 lists the compounds tested; column 2, the dosage of test compound in mg./kg.; and column 3, the survival ratio.

[27] = Bacteroides fragilis, 24 h, read-out: 24 Hr. MIC

## CCC[C@@H]1C[C@@H](C(=O)N[C@@H]([C@H]2O[C@H](SC)[C@H](O)[C@@H](O)[C@H]2O)[C@H](C)Cl)N(C)C1 [C, clindamycin, reference compound]
[1]
  MIC: ≤ 0.5 µg/mL
[2]
  MIC: ≤ 0.5 µg/mL
[3]; Bacteroides, 1211, 24 h, read-out: 24 Hr. MIC
  MIC: ≤ 0.5 µg/mL
[4]; Peptostreptococcus anaerobius, 1428, 24 h, read-out: 24 Hr. MIC
  MIC: ≤ 0.5 µg/mL
[5]
  MIC: ≤ 0.5 µg/mL
[6]; Collinsella aerofaciens, 1235, 24 h, read-out: 24 Hr. MIC
  MIC: 8 µg/mL (≈ 18.8 µM)
[7]
  MIC: ≤ 0.5 µg/mL
[8]
  MIC: ≤ 0.06 µg/mL
[9]
  MIC: 0.125 µg/mL (≈ 0.294 µM)
[10]; [27]
  MIC: ≤ 0.5 µg/mL
[11]
  MIC: ≤ 0.06 µg/mL
[12]; [27]
  MIC: 0.125 µg/mL (≈ 0.294 µM)
[13]
  MIC: 0.25 µg/mL (≈ 0.588 µM)
[14]; 2736, 24 h, read-out: 24 Hr. MIC
  MIC: ≤ 0.5 µg/mL
[15]
  MIC: 4 µg/mL (≈ 9.41 µM)
[16]
  MIC: ≤ 0.5 µg/mL
[17]; [27]
  MIC: 0.5 µg/mL (≈ 1.18 µM)
[18]
  MIC: 0.125 µg/mL (≈ 0.294 µM)
[19]; [27]
  MIC: 1 µg/mL (≈ 2.35 µM)
[20]
  MIC: 0.25 µg/mL (≈ 0.588 µM)
[21]
  MIC: ≤ 0.5 µg/mL
[22]; Eikenella corrodens, 1874, 24 h, read-out: 24 Hr. MIC
  MIC: ≤ 0.5 µg/mL
[23]
  MIC: 0.125 µg/mL (≈ 0.294 µM)
[24]; [27]
  MIC: 0.125 µg/mL (≈ 0.294 µM)
[25]
  MIC: 0.25 µg/mL (≈ 0.588 µM)

## CCOC(=O)C(=O)Nc1c(C#N)c(-c2ncc([N+](=O)[O-])n2C)nn1C [Example 2, N-[4-Cyano-1-methyl-3-(1-methyl-5-nitroimidazol-2-yl)pyrazol-5-yl]oxamic acid, ethyl ester, sodium salt]
[1]; sodium salt
  24 Hr. MIC: ≤ 0.25 µg/mL
[2]; sodium salt
  24 Hr. MIC: ≤ 0.25 µg/mL
[3]; sodium salt
  24 Hr. MIC: ≤ 0.25 µg/mL
[4]; sodium salt
  24 Hr. MIC: ≤ 0.25 µg/mL
[5]; sodium salt
  24 Hr. MIC: 16 µg/mL
[6]; sodium salt
  24 Hr. MIC: ≤ 0.25 µg/mL
[7]; sodium salt
  24 Hr. MIC: ≤ 0.25 µg/mL
[8]; sodium salt
  24 Hr. MIC: 0.125 µg/mL
[9]; sodium salt
  24 Hr. MIC: 0.25 µg/mL
[10]; sodium salt
  24 Hr. MIC: ≤ 0.25 µg/mL
[11]; sodium salt
  24 Hr. MIC: 0.25 µg/mL
[12]; sodium salt
  24 Hr. MIC: 0.5 µg/mL
[13]; sodium salt
  24 Hr. MIC: 0.25 µg/mL
[14]; sodium salt
  24 Hr. MIC: 0.5 µg/mL
[15]; agar dilution, 37° C., sodium salt
  24 Hr. MIC: ≤ 0.25 µg/mL
[17]; sodium salt
  24 Hr. MIC: 0.25 µg/mL
[18]; sodium salt
  24 Hr. MIC: 0.5 µg/mL
[21]; sodium salt
  24 Hr. MIC: > 64 µg/mL
[22]; sodium salt
  24 Hr. MIC: ≤ 0.25 µg/mL
[23]; sodium salt
  24 Hr. MIC: 0.25 µg/mL
[24]; sodium salt
  24 Hr. MIC: 0.25 µg/mL
[25]; sodium salt
  24 Hr. MIC: 0.125 µg/mL
[26]
  Survival Ratio: 2/5

## Cn1nc(-c2ncc([N+](=O)[O-])n2C)c(C#N)c1NC(=O)C(=O)c1ccccc1 [Example 10, N-[4-cyano-1-methyl-3-(1-methyl-5-nitroimidazol-2-yl)pyrazol-5-yl]-2-phenylglyoxylamide]
[1]
  MIC: 1 µg/mL (≈ 2.64 µM)
[2]
  MIC: ≤ 0.03 µg/mL
[3]
  24 Hr. MIC: 4 µg/mL
[4]
  24 Hr. MIC: 1.0 µg/mL
[5]
  MIC: 32 µg/mL (≈ 84.4 µM)
[6]
  24 Hr. MIC: 2 µg/mL
[7]
  MIC: 0.5 µg/mL (≈ 1.32 µM)
[8]
  MIC: ≤ 0.03 µg/mL
[9]
  MIC: ≤ 0.03 µg/mL
[10]
  24 Hr. MIC: 2 µg/mL
[11]
  MIC: ≤ 0.03 µg/mL
[12]
  24 Hr. MIC: 0.06 µg/mL
[13]
  MIC: ≤ 0.03 µg/mL
[14]
  24 Hr. MIC: 2 µg/mL
[15]
  MIC: 1 µg/mL (≈ 2.64 µM)
[16]
  MIC: > 64 µg/mL
[17]
  24 Hr. MIC: ≤ 0.03 µg/mL
[18]
  MIC: ≤ 0.03 µg/mL
[19]
  24 Hr. MIC: ≤ 0.03 µg/mL
[20]
  MIC: ≤ 0.03 µg/mL
[21]
  MIC: 64 µg/mL (≈ 169 µM)
[22]
  24 Hr. MIC: 1.0 µg/mL
[23]
  MIC: ≤ 0.03 µg/mL
[24]
  24 Hr. MIC: ≤ 0.03 µg/mL
[25]
  MIC: ≤ 0.03 µg/mL
